The results in this text go back to patent US9073821B2, “Hydroxamic acid derivative” (priority 2010, dated 2015).

One may read the MIC as the smallest concentration in the dilution series that meets the test's criterion for growth inhibition.

For test [1], the target named is Pseudomonas aeruginosa LpxC enzyme (Pseudomonas aeruginosa (strain ATCC 15692 / DSM 22644 / CIP 104116 / JCM 14847 / LMG 12228 / 1C / PRS 101 / PAO1), UniProt P47205). The experiment in a line: biochemical. Format: biochemical.
The subject of test [2] is Pseudomonas aeruginosa strain TS88 (clinical isolate). As to the kind of experiment: Antimicrobial activity, MIC by broth microdilution. Format: cell-based. To be noted: Table 1, 35° C., 18 hours, read-out: MIC Pseudomonas aeruginosa TS88 strain. The text has this: Test 3: Evaluation of Antimicrobial Activity For minimum inhibitory concentration (MIC) measurement, the following broth microdilution method was applied as adapted from the standard procedure recommended by the CLSI (Clinical and Laboratory Standards Institute). The bacteria used were Pseudomonas aeruginosa strain TS88 (clinical isolate), E. coli strain ATCC25922, and Klebsiella pneumoniae strain ATCC13883. After culture overnight on a heart infusion agar medium, the cells of a test bacterium were scraped off and suspended to give a turbidity of level 0.5 on the McFarland scale; the suspension was then diluted 10 fold to prepare an inoculum solution. A 0.005 mL aliquot of the inoculum solution was inoculated in a cation-adjusted Mueller-Hinton broth medium containing a test compound and cultured at 35° C. for 18 hours. A minimum drug concentration at which no cell growth was visible to the naked eye was designated as MIC.
(Broth dilution looks for growth in wells or tubes with falling amounts of substance.)

Where [3] appears, read: Table 1, read-out: Pseudomonas aeruginosa LpxC IC50.
Setting [4] is: inhibitory activity on Pseudomonas aeruginosa LpxC enzyme, class symbols A/B/C, read-out: Enzyme inhibitory activity.

Converted amounts (≈) assume the structure as drawn. Read-outs that look alike come from different tables or passages of the source.

Regarding `CNC(=O)C(C(=O)NO)N(C)C(=O)c1ccc(-c2ccc(NC)cc2)cc1` (stereo not shown) [Compound 2, N-hydroxy-N′-methyl-2-(methyl {[4′-(methylamino)biphenyl-4-yl]carbonyl}amino)propanediamide], the IC50 in test [1] (setting [3]) was 7.1 nM. In addition, in test [2], the MIC came to 0.5 µg/mL (≈ 1.35 µM). The like results for `CNC(=O)C(C(=O)NO)N(C)C(=O)c1ccc(-c2ccccc2)c(F)c1` (stereo not shown) [Compound 61, 2-{[(2-fluorobiphenyl-4-yl)carbonyl](methyl)amino}-N-hydroxy-N′-methylpropanediamide] were, in that order, 9.2 nM and 2 µg/mL (≈ 5.57 µM).

Consider `CNC(=O)C(C(=O)NO)N(C)C(=O)c1ccc(-c2ccc(OCCCN3CCOCC3)cc2)cc1.Cc1ccc(S(=O)(=O)O)cc1` (stereo not shown) [Compound 7b, N-hydroxy-N′-methyl-2-[methyl({4′-[3-(morpholin-4-yl)propoxy]biphenyl-4-yl}carbonyl)amino]propanediamide 4-methylbenzenesulfonate], for which, in test [2], the MIC came to 2 µg/mL.

For the compound `CNC(=O)C(C(=O)NO)N(C)C(=O)c1ccc(-c2ccc3c(c2)CCN3C)cc1` (stereo not shown) [Compound 40, N-hydroxy-N′-methyl-2-{methyl[4-(1-methyl-2,3-dihydro-1H-indol-5-yl)benzoyl]amino}propanediamide], the IC50 in test [1] (setting [3]) was 4.7 nM. In test [2], the minimum inhibitory concentration (MIC) came to 1 µg/mL (≈ 2.52 µM).

In the case of `CNc1ccc(-c2ccc(C(=O)N(C)C(C(=O)NO)C(=O)NCc3cc(C)on3)cc2)cc1` (stereo not shown) [Compound 77, N-hydroxy-2-(methyl {[4′-(methylamino)biphenyl-4-yl]carbonyl}amino)-N′-[(5-methyl-1,2-oxazol-3-yl)methyl]propanediamide], the IC50 in test [1] (setting [3]) was found to be 7.5 nM. Besides, in test [2], the minimal inhibitory concentration (MIC) stood at 4 µg/mL (≈ 8.86 µM). `CNC(=O)C(C(=O)NO)N(C)C(=O)c1ccc(-c2ccc(OC)cc2)cc1` (stereo not shown) [Compound 3]: the IC50 in test [1] (setting [3]) amounted to 3.3 nM. Moreover, the MIC in test [2] is 0.5 µg/mL (≈ 1.35 µM). Consider `CNC(=O)C(C(=O)NO)N(C)C(=O)c1ccc(-c2ccc(F)cc2)cc1` (stereo not shown) [Compound 6, 2-{[(4′-fluorobiphenyl-4-yl)carbonyl](methyl)amino}-N-hydroxy-N′-methylpropanediamide], for which the IC50 in test [1] (setting [3]) is 7.1 nM. For the same compound, the minimal inhibitory concentration (MIC) in test [2] turned out to be 1 µg/mL (≈ 2.78 µM). As for `CNC(=O)C(C(=O)NO)N(C)C(=O)c1ccc(-c2ccc(OCCCN3CCOCC3)cc2)cc1` (stereo not shown) [Compound 7, N-hydroxy-N′-methyl-2-[methyl({4′-[3-(morpholin-4-yl)propoxy]biphenyl-4-yl}carbonyl)amino]propanediamide], the MIC in test [2] stood at 2 µg/mL (≈ 4.13 µM).

Consider `CNC(=O)C(C(=O)NO)N(C)C(=O)c1ccc(-c2ccc(C)cc2)cc1` (stereo not shown) [Compound 5, N-hydroxy-N′-methyl-2-{methyl[(4′-methylbiphenyl-4-yl)carbonyl]amino}propanediamide], for which the IC50 in test [1] (setting [3]) stood at 3.7 nM. Moreover, the minimum inhibitory concentration (MIC) in test [2] came to 0.25 µg/mL (≈ 0.703 µM).

`CNC(=O)C(C(=O)NO)N(C)C(=O)c1ccc(-c2ccc(N(C)C)cc2)cc1` (stereo not shown) [Compound 43, 2-[{[4′-(dimethylamino)biphenyl-4-yl]carbonyl}(methyl)amino]-N-hydroxy-N′-methylpropanediamide]: in test [1] (setting [3]), the IC50 worked out at 7.2 nM. For the same compound, the MIC in test [2] is 1 µg/mL (≈ 2.6 µM). For `CNC(=O)C(C(=O)NO)N(C)C(=O)c1ccc(-c2ccc3c(c2)OCC3)cc1` (stereo not shown) [Compound 271, 2-{[4-(2,3-dihydro-1-benzofuran-6-yl)benzoyl](methyl)amino}-N-hydroxy-N′-methylpropanediamide], in that order: 5 nM and 0.5 µg/mL (≈ 1.3 µM). Take `CNC(=O)C(C(=O)NO)N(C)C(=O)c1ccc(C#Cc2ccccc2)cc1` (stereo not shown) [Compound 218, N-hydroxy-N′-methyl-2-{methyl[4-(phenylethynyl)benzoyl]amino}propanediamide]: the IC50 in test [1] (setting [3]) is 7.2 nM. Also, the MIC in test [2] was determined as 1 µg/mL (≈ 2.74 µM). As to `Cc1cc(CNC(=O)C(C(=O)NO)N(C)C(=O)c2ccc(-c3ccccc3)cc2)no1` (stereo not shown) [Compound 172, 2-[(Biphenyl-4-ylcarbonyl)(methyl)amino]-N-hydroxy-N′-[(5-methyl-1,2-oxazol-3-yl)methyl]propanediamide], the IC50 in test [1] (setting [3]) was 7.1 nM. Also, the minimal inhibitory concentration (MIC) in test [2] was found to be 2 µg/mL (≈ 4.73 µM).

Turning to `CNC(=O)C(C(=O)NO)N(C)C(=O)c1ccc(-c2ccccc2)cc1` (stereo not shown) [Compound 1, 2-[(Biphenyl-4-ylcarbonyl)(methyl)amino]-N-hydroxy-N′-methylpropanediamide], the IC50 in test [1] (setting [3]) stood at 7.7 nM. Moreover, the MIC in test [2] came to 0.5 µg/mL (≈ 1.46 µM). The like results for `CNC(=O)C(C(=O)NO)N(C)C(=O)c1ccc(-c2ccc3c(c2)CCO3)cc1` (stereo not shown) [Compound 188, 2-{[4-(2,3-dihydro-1-benzofuran-5-yl)benzoyl](methyl)amino}-N-hydroxy-N′-methylpropanediamide] were, in that order, 5 nM and 0.5 µg/mL (≈ 1.3 µM).

For `CN(C)C(=O)C(NC(=O)c1ccc(-c2ccc(OCCO)cc2)cc1)C(=O)NO` (stereo not shown) [Compound 118, N′-hydroxy-2-({[4′-(2-hydroxyethoxy)biphenyl-4-yl]carbonyl}amino)-N,N-dimethylpropanediamide], the IC50 in test [1] (setting [4]) is > 100 nM. Still for that read-out and setting: the figure for `CNC(=O)C(C(=O)NO)N(C)C(=O)c1ccc(-c2ccc(CNC(C)=O)cc2)cc1` (stereo not shown) [Compound 241, 2-[({4′-[(acetylamino)methyl]biphenyl-4-yl}carbonyl)(methyl)amino]-N-hydroxy-N′-methylpropanediamide] is 10 to 100 nM; for `CNC(=O)C(C(=O)NO)N(C)C(=O)c1ccc(C#Cc2ccc(CN3CC4(COC4)C3)cc2)cc1` (stereo not shown) [Compound 322, N-hydroxy-N′-methyl-2-{methyl[(4-{[4-(2-oxa-6-azaspiro[3.3]hept-6-ylmethyl)phenyl]ethynyl}phenyl)carbonyl]amino}propanediamide] it is < 10 nM. The same measure, in the same setting: the figure for `CNC(=O)C(C(=O)NO)N(C)C(=O)c1ccc(-c2ccc3c(c2)OC(F)(F)O3)cc1` (stereo not shown) [Compound 258, 2-{[4-(2,2-difluoro-1,3-benzodioxol-5-yl)benzoyl](methyl)amino}-N-hydroxy-N′-methylpropanediamide] is < 10 nM. Still for that read-out and setting: the figure for `CNC(=O)C(C(=O)NO)N(C)C(=O)c1ccc(-c2ccc3[nH]ccc3c2)cc1` (stereo not shown) [Compound 201, N-hydroxy-2-{[4-(1H-indol-5-yl)benzoyl](methyl)amino}-N′-methylpropanediamide] is < 10 nM; for `CN(C(=O)c1ccc(-c2ccccc2)cc1)C(C(=O)NO)C(=O)NCCc1ccccc1` (stereo not shown) [Compound 76, 2-[(biphenyl-4-ylcarbonyl)(methyl)amino]-N-hydroxy-N′-(2-phenylethyl)propanediamide] it is > 100 nM. On to `CNC(=O)C(C(=O)NO)N(CC(F)F)C(=O)c1ccc(-c2ccc(OCCCN3CCOCC3)cc2)cc1` (stereo not shown) [Compound 225, 2-[(2,2-difluoroethyl)({4′-[3-(morpholin-4-yl)propoxy]biphenyl-4-yl}carbonyl)amino]-N-hydroxy-N′-methylpropanediamide], for which the IC50 in test [1] (setting [4]) was < 10 nM. Take `CCOC1CN(Cc2ccc(C#Cc3ccc(C(=O)N(C)C(C(=O)NC)C(=O)NO)cc3)cc2C)C1` (stereo not shown) [Compound 562, 2-[{[4-({4-[(3-ethoxyazetidin-1-yl)methyl]-3-methylphenyl}ethynyl)phenyl]carbonyl}(methyl)amino]-N-hydroxy-N′-methylpropanediamide]: in test [1] (class symbols A/B/C by IC50, Table 3, read-out: Enzyme inhibitory activity (inhibitory activity on Pseudomonas aeruginosa LpxC enzyme)), the IC50 is < 10 nM. With `CCCCCCCCOc1ccc(C(=O)N(C)C(C(=O)NC)C(=O)NO)cc1` (stereo not shown) [Compound 25, N-hydroxy-N′-methyl-2-{methyl[4-(octyloxy)benzoyl]amino}propanediamide], the IC50 in test [1] (setting [4]) lay within 10 to 100 nM. Still for that read-out and setting: the figure for `CCCCCNc1ccc(-c2ccc(C(=O)N(C)C(C(=O)NC)C(=O)NO)cc2)cn1` (stereo not shown) [Compound 475, N-hydroxy-N′-methyl-2-[methyl({4-[6-(pentylamino)pyridin-3-yl]phenyl}carbonyl)amino]propanediamide] is 10 to 100 nM. The same measure, in the same setting: with `CNC(=O)C(C)(C(=O)NO)N(C)C(=O)c1ccc(-c2ccc(C)cc2)cc1` (stereo not shown) [Compound 349, N-hydroxy-N′,2-dimethyl-2-{methyl[(4′-methylbiphenyl-4-yl)carbonyl]amino}propanediamide] the figure was < 10 nM. On the same count and under the same terms, the figure for `CNC(=O)C(C(=O)NO)N(C)C(=O)c1ccc(-c2ccc(OCc3ccccc3)nc2)cc1` (stereo not shown) [Compound 468, 2-[({4-[6-(benzyloxy)pyridin-3-yl]phenyl}carbonyl)(methyl)amino]-N-hydroxy-N′-methylpropanediamide] is < 10 nM; for `CNC(=O)C(C(=O)NO)N(C)C(=O)c1ccc(-c2ccc(NC)c(Cl)c2)cc1` (stereo not shown) [Compound 227, 2-[{[3′-chloro-4′-(methylamino)biphenyl-4-yl]carbonyl}(methyl)amino]-N-hydroxy-N′-methylpropanediamide] it is < 10 nM; for `CNC(=O)C(C(=O)NO)N(C)C(=O)c1ccc(C#Cc2ccc(CN(CCO)CCO)cc2)cc1` (stereo not shown) [Compound 315, 2-[({4-[(4-{[bis(2-hydroxyethyl)amino]methyl}phenyl)ethynyl]phenyl}carbonyl)(methyl)amino]-N-hydroxy-N′-methylpropanediamide] it is < 10 nM.

Take `CN(C)C(=O)CNC(=O)C(NC(=O)c1ccc(-c2ccc(OCCO)cc2)cc1)C(=O)NO` (stereo not shown) [Compound 144, N-[2-(dimethylamino)-2-oxoethyl]-N′-hydroxy-2-({[4′-(2-hydroxyethoxy)biphenyl-4-yl]carbonyl}amino)propanediamide]: the IC50 in test [1] (setting [4]) is < 10 nM.
